Data from patent US20220386606A1, “SPECIFICALLY SUBSTITUTED 3-PHENYL-5-SPIROCYCLOPENTYL-3-PYRROLIN-2-ONES AND THEIR USE AS HERBICIDES” (Bayer Aktiengesellschaft, priority 2019, published 2022).

Columns and labels:
MATIN = assay: Pre-emergence herbicidal action against MATIN; assay type: in vivo; conditions: 320 g/ha
Procedure, shortened: (§1)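 Weed and crop seeds sown in sandy loam, then WP or EC formulations sprayed onto covering soil pre-emergence as aqueous suspension or emulsion at 600 to 800 L/ha water with 0.2% wetting agent. Greenhouse-grown; visual damage scored after 3 weeks versus untreated controls, 0–100%.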

ALOMY [1] = assay: Post-emergence herbicidal action against ALOMY; assay type: in vivo, Alopecurus myosuroides; conditions: 80 g/ha, visual assessment after about 3 weeks
Procedure, shortened: (§2)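 Greenhouse post-emergence test; one-leaf stage (2–3 wk post-sowing), sandy loam. Spray: WP/EC in water, 600–800 l/ha, 0.2% wetting agent, onto green parts. Visual rating ~3 wk later, % vs untreated (100% = dead, 0% = like control).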

LOLRI [2] = assay: Post-emergence herbicidal action against LOLRI; assay type: in vivo, Lolium rigidum; conditions: 80 g/ha, visual assessment about 3 weeks after treatment vs untreated controls
Procedure, shortened: as §2

AVEFA [3] = assay: Post-emergence herbicidal action against AVEFA; assay type: in vivo, Avena fatua; conditions: 80 g/ha, visual assessment after about 3 weeks
Procedure, shortened: as §2

VIOTR = assay: Pre-emergence herbicidal action against VIOTR; assay type: in vivo, Viola tricolor; conditions: 320 g/ha
Procedure, shortened: as §1

AVEFA [4] = assay: Pre-emergence herbicidal action against AVEFA; assay type: in vivo, Avena fatua; conditions: 320 g/ha, scored visually after 3 weeks vs untreated controls
Procedure, shortened: as §1

AMARE = assay: Pre-emergence herbicidal action against AMARE; assay type: in vivo, Amaranthus retroflexus; conditions: 320 g/ha
Procedure, shortened: as §1

SETVI [5] = assay: Pre-emergence herbicidal action against SETVI; assay type: in vivo, Setaria viridis; conditions: 320 g/ha, scored visually after 3 weeks vs untreated controls
Procedure, shortened: as §1

DIGSA [6] = assay: Pre-emergence herbicidal action against DIGSA; assay type: in vivo, Digitaria sanguinalis; conditions: 320 g/ha, scored visually after 3 weeks vs untreated controls
Procedure, shortened: as §1

ALOMY [7] = assay: Pre-emergence herbicidal action against ALOMY; assay type: in vivo, Alopecurus myosuroides; conditions: 320 g/ha, scored visually after 3 weeks vs untreated controls
Procedure, shortened: as §1

ECHCG [8] = assay: Post-emergence herbicidal action against ECHCG; assay type: in vivo, Echinochloa crus-galli; conditions: 80 g/ha, visual assessment about 3 weeks after treatment vs untreated controls
Procedure, shortened: as §2

DIGSA [9] = assay: Post-emergence herbicidal action against DIGSA; assay type: in vivo, Digitaria sanguinalis; conditions: 80 g/ha, visual assessment about 3 weeks after treatment vs untreated controls
Procedure, shortened: as §2

ABUTH = assay: Pre-emergence herbicidal action against ABUTH; assay type: in vivo, Abutylon threophrasti; conditions: 320 g/ha
Description: Seeds of monocotyledonous and dicotyledonous weed plants and crop plants are laid out in sandy loam soil in wood-fiber pots and covered with soil. The compounds of the invention, formulated in the form of wettable powders (WP) or as emulsion concentrates (EC), are then applied to the surface of the covering soil as aqueous suspension or emulsion at a water application rate equating to 600 to 800 L/ha with addition of 0.2% wetting agent.
After the treatment, the pots are placed in a greenhouse and kept under good growth conditions for the trial plants. The damage to the test plants is scored visually after a test period of 3 weeks by comparison with untreated controls (herbicidal activity in percent (%): 100% activity=the plants have died, 0% activity=like control plants).

VERPE = assay: Pre-emergence herbicidal action against VERPE; assay type: in vivo, Veronica persica; conditions: 320 g/ha
Procedure, shortened: as §1

SETVI [10] = assay: Post-emergence herbicidal action against SETVI; assay type: in vivo, Setaria viridis; conditions: 80 g/ha, visual assessment about 3 weeks after treatment vs untreated controls
Procedure, shortened: as §2

LOLRI [11] = assay: Pre-emergence herbicidal action against LOLRI (Table 8, titled post-emergence at 320 g/ha); assay type: in vivo, Lolium rigidum; conditions: table stands in the pre-emergence section
Procedure, shortened: as §1

ECHCG [12] = assay: Pre-emergence herbicidal action against ECHCG; assay type: in vivo, Echinochloa crus-galli; conditions: 320 g/ha, scored visually after 3 weeks vs untreated controls
Procedure, shortened: as §1

POLCO = assay: Pre-emergence herbicidal action against POLCO; assay type: in vivo, Polygonum convolvulus; conditions: 320 g/ha
Procedure, shortened: as §1

| Structure (SMILES) | Pre-emergence action against MATIN in % (MATIN) | Post-emergence action against ALOMY in % (ALOMY [1]) | Post-emergence action against LOLRI in % (LOLRI [2]) | Post-emergence action against AVEFA in % (AVEFA [3]) | Pre-emergence action against VIOTR in % (VIOTR) | Pre-emergence action against AVEFA in % (AVEFA [4]) | Pre-emergence action against AMARE in % (AMARE) | Pre-emergence action against SETVI in % (SETVI [5]) | Pre-emergence action against DIGSA in % (DIGSA [6]) | Pre-emergence action against ALOMY in % (ALOMY [7]) | Post-emergence action against ECHCG in % (ECHCG [8]) | Post-emergence action against DIGSA in % (DIGSA [9]) | Pre-emergence action against ABUTH in % (ABUTH) | Pre-emergence action against VERPE in % (VERPE) | Post-emergence action against SETVI in % (SETVI [10]) | Pre-emergence herbicidal action against LOLRI in % (LOLRI [11]) | Pre-emergence action against ECHCG in % (ECHCG [12]) | Pre-emergence action against POLCO in % (POLCO) |
| --- | --- | --- | --- | --- | --- | --- | --- | --- | --- | --- | --- | --- | --- | --- | --- | --- | --- | --- |
| CC#Cc1cc(Cl)c(C2=C(OC(=O)OCC)C3(CCC(COC)C3)NC2=O)c(OC)c1 (centres unmarked) [Example P-98] | 90% | 100% | 100% | 90% | 100% | 100% | 100% | 100% | 100% | 100% | 100% | 100% | 90% | 100% | 100% | 100% | 100% | – |
| CC#Cc1cc(Cl)c(C2=C(OC(=O)OCC)C3(CCC(COC)C3)NC2=O)c(OC)c1 (centres unmarked) [Example P-97] | 100% | 100% | 100% | 100% | 90% | 100% | 100% | 100% | 100% | 100% | 100% | 100% | 100% | 100% | 100% | 100% | 100% | – |
| CC#Cc1cc(C)c(C2=C(O)C3(CCC(COCCOC)C3)NC2=O)c(Cl)c1 (centres unmarked) [Example I-50] | 80% | 100% | 90% | 80% | 100% | 100% | 80% | 100% | 100% | 100% | 100% | – | 100% | – | 100% | 100% | 100% | 90% |
| CC#Cc1cc(C)c(C2=C(O)C3(CCC(COCC)C3)NC2=O)c(Cl)c1 (centres unmarked) [Example I-17] | 90% | 100% | 100% | 90% | 100% | 100% | 100% | 100% | 100% | 100% | 100% | 100% | 90% | 90% | 100% | 100% | 100% | – |
| CC#Cc1cc(Cl)c(C2=C(O)C3(CCC(COC)C3)NC2=O)c(OC)c1 (centres unmarked) [Example I-72] | 100% | 90% | 100% | 100% | 100% | 100% | – | 100% | 100% | 100% | 100% | 100% | 100% | – | 100% | 100% | 100% | – |
| C#CCOCC1CCC2(C1)NC(=O)C(c1c(C)cc(C#CC)cc1Cl)=C2OC(=O)OCC (centres unmarked) [Example P-100] | 90% | 100% | 100% | 80% | 100% | 90% | 100% | 100% | 100% | 100% | 100% | 90% | 80% | 90% | 100% | 100% | 100% | – |
| CC#Cc1cc(Cl)c(C2=C(O)C3(CCC(COC)C3)NC2=O)c(OC)c1 (centres unmarked) [Example I-73] | 90% | 100% | 100% | 100% | 100% | 100% | 100% | 100% | 100% | 100% | 100% | 100% | 100% | 90% | 100% | 100% | 100% | – |
